Data set [1] concerns HSV-1, HSV-1R, HSV-2 and HSV-2R. As to the kind of experiment: Action as a function of the moment of use (time of addition). The data set is classed as cell-based, herpes simplex virus. The settings on record: for Inhibitory effect as a function of the moment of use: viral strains HSV-1R and HSV-2R, PS3 even when used 3 hours after infection, 72 hours. On the procedure: To determine at what moment it is appropriate to use PS3, the procedure was as follows.
Vero cells were seeded at a cell density of 3.5·10^4 cells/well of a 96-well microtitre plate in 100 μl of MEM medium containing 8% FCS and they were then infected by being brought into contact with the various viral strains identified above for 1 hour at 4° C.
The infected cells were then washed with a saline buffer in order to remove the viral particles which had not be adsorbed.
The infected cells were then treated with PS3 or with the comparison product: • either at the moment of infection, • or 1, 2, 3 and 5 hours after infection.
In each case the microtitre plates were kept at 37° C. for 72 hours. The inhibitory effect of PS3 or of the comparison product, in this case acyclovir, was then determined for each viral strain.

Data set [2] has the same test system. As to the kind of experiment: Action on the viral adsorption, conclusion for the strains together. The data set is classed as cell-based, herpes simplex virus. On the procedure: To determine whether PS3 has an effect on the viral adsorption, the procedure was as follows.
Vero cells were seeded at a cell density of 3.5·10^4 cells/well of a 96-well microtitre plate in 100 μl of MEM medium containing 8% FCS 24 hours before the test. The viral suspensions of HSV-1, HSV-1R, HSV-2 and HSV-2R, defined by an MOI of 0.01 ID50/cell for a cell concentration of 350,000 cells/ml, were tested.
On the day of the test, the cells were subjected to three different treatments designated A, B and C.
According to treatment A, cells treated with 50 μl of PS3 or comparison product (acyclovir) of a given concentration were infected with 50 μl of one of the viral suspensions identified above for one hour at 4° C.
The infected cells were then washed with 100 μl of saline buffer in order to remove the PS3 or the reference product as well as the viral particles which had not been adsorbed by the cells.
After having filled each well with sufficient MEM medium containing 8% FCS to arrive at a volume of 200 μl, the cells were then placed in an oven at 37° C. for 72 hours. […]
For these 3 treatments, the inhibitory effect of PS3 and of the reference product (expressed in EC50) on the adsorption of the four abovementioned viral strains after 72 hours was evaluated by measurement of the EC50 values in accordance with the method described in Example 3.

Data set [3] shares this test system. Kind of data set: Action on the viral penetration. The data set is classed as cell-based, herpes simplex virus. The method, then: To determine whether PS3 has an effect on the viral penetration, the procedure was as follows.
Vero cells were seeded at a cell density of 3.5·10^4 cells/well of a microtitre plate in 100 μl of MEM medium containing 8% FCS.
After 24 hours, the confluent cells were brought into contact with 50 μl of a viral suspension for 1 hour at 4° C.
The cell carpet was then incubated with various concentrations of PS3 (0.125-1,250 μg/ml) or reference product, in this case acyclovir ([…]), at 37° C. in order to facilitate penetration of the viruses.
After incubation times of 15, 30 and 60 minutes, the corresponding cells were washed with 100 μl of PBS and then treated for 1 minute with 0.5 mg/ml of proteinase K (Sigma) in solution in PBS in order to remove all the extracellular viruses which had not been adsorbed.
This treatment was stopped by addition of 1 mM of phenylmethylsulphonyl fluoride (Sigma) in solution in PBS containing 3% FCS.
The cells were then washed with 100 μl of PBS per well and cultured again at 37° C. in 200 μl of MEM medium supplemented with 8% FCS.
Controls of the growth of the cells and of the viruses were run simultaneously. After incubation for 48 hours, the effect of PS3 and of acyclovir on the penetration of the virus was measured using the neutral red method.

In data set [4] the test system is white rabbits of the New Zealand breed. As to the kind of experiment: Primary skin irritation test. The data set is classed as in vivo. On the procedure: (§1) This study was carried out on white rabbits of the New Zealand breed and on rats of the Sprague Dawley breed.
The white rabbits were subjected on the one hand to the ocular irritation test and on the other hand to the primary skin irritation test.
(§2) observing the OECD Guidelines no. 404 and 405 of 24 Feb. 1987 to the extent that they are studies carried out on white rabbits, and OECD Guidelines no. 401 and 402 (1987) as well as EEC Directive B-I 92/69 (1992) to the extent that they are studies carried out on Sprague Dawley rats.

In data set [5] the test system is rats of the Sprague Dawley breed. Kind of data set: Acute oral toxicity. Type of data set: in vivo. On the procedure: as §1
The rats were subjected on the one hand to a study for determination of the acute dermal toxicity and on the other hand to a study for determination of the acute oral toxicity.
as §2

For data set [6], the system named is intrinsic coagulation system. Kind of data set: APTT (activated partial thromboplastin time) test. The data set is classed as biochemical. As to conditions: relative to heparin. On the procedure: For this, the anticoagulant activity of the laminarin sulphate PS3 obtained in Example 1 was determined as a function of its concentration in comparison with that of heparin in the conventional coagulation, APTT or “activated partial thromboplastin time” tests, the prothombin time test, the so-called “HEPTEST” test and the thrombin time test. The APTT reflects an interaction with the intrinsic coagulation system, while the prothrombin time reflects an interaction with the extrinsic coagulation; the so-called “HEPTEST” test is the conventional test for measurement of the inhibitory activity of heparin with respect to factor Xa, and the thrombin time corresponds to the last stage of coagulation, that is to say the formation of fibrins induced by thrombin.

In data set [7] the test system is factor Xa. Kind of data set: Specific anti-factor Xa test using chromogenic substrates. The data set is classed as biochemical. The text has this: The effect in the case of the thrombin time can be considered as being due to an inhibition of thrombin dependent on heparin cofactor II. On the basis of on the one hand the lower specific activity and on the other hand the profile dependent on the concentration and also on the other hand other investigations relating to the action mechanism, it is possible to consider that in the case of the laminarin sulphate PS3, the risk of bleeding is considerably lower than in the case of heparin.

Where [8] appears, read: non-resistant strains HSV-1 and HSV-2.
Setting [9] is: strains HSV-1, HSV-2, HSV-1R, HSV-2R.

On to `Nc1nc2c(ncn2COCCO)c(=O)[nH]1` [Acyclovir, acyclovir, reference compound], for which, in data set [1] (setting [8]), the “Effect in relation to the moment of addition” value is “effective up”. Besides, the “Inhibitory effect as a function of the moment of use” value in data set [1] is recorded as “no effect”. Moreover, in data set [2] (setting [8]), the Effect on adsorption result was “no”. Further, the Effect on penetration result in data set [3] (setting [8]) was “no”.

Turning to sulphated laminarin [PS3], in data set [1] (setting [9]), the “Effect in relation to the moment of addition” value is given as “not very effective”. Besides, the “Inhibitory effect as a function of the moment of use” value in data set [1] is recorded as “particularly effective”. Moreover, the Effect on adsorption entry in data set [2] (setting [9]) was “inhibitory effect on the 4 viral strains solely during treatment C and yes”. Also, the Effect on penetration entry in data set [3] (setting [9]) is “no antiviral activity on penetration and no”. Besides, the Primary skin irritation result in data set [4] is reported as “non-irritating action”. Moreover, in data set [5], the “acute toxicity by the oral route” value was “greater than 2 g/kg of body weight”. In data set [6], the “Concentration needed to prevent coagulation totally, APTT” value is listed as 4 times higher and the “Specific activity (IU/mg) in the APTT as share of the heparin activity” value stood at 30%. In data set [7], the “anti-factor Xa activity dependent on the antithrombin” value is recorded as “neither a significant anti-factor Xa activity dependent on the antithrombin”.

For the origin of these results see patent US8288363B2, “Medicaments for anti-herpes virus treatments” (ASE & BIO, priority 2006, dated 2012).
